Legend:
[1] = system: FMN RT RNA (FMN riboswitch in structure cassette) (RNA, riboswitch) GGGCCUUCGGGCCAAUGUAUCCUUCGGGGCAGGGUGGAAAUCCCGACCGGCGGUAGUAAAGCACAUUUGCUUUAGAGCCCGUGACCCGUGUGCAUAAGCACGCGGUGGAUUCAGUUUAAGCUGAAGCCGACAGUGAAAGUCUGGAUGGGAGAAGGAUGAUCGAUCCGGUUCGCCGGAUCCAAAUCGGGCUUCGGUCCGGUUC; assay: SHAPE (NAI); details: 15 mM MgCl2, 100 mM KCl; 50 mM HEPES pH 8.0, 37 °C; 100 μM compound
[2] = system: FMN RT RNA (FMN riboswitch in structure cassette) (RNA, riboswitch) GGGCCUUCGGGCCAAUGUAUCCUUCGGGGCAGGGUGGAAAUCCCGACCGGCGGUAGUAAAGCACAUUUGCUUUAGAGCCCGUGACCCGUGUGCAUAAGCACGCGGUGGAUUCAGUUUAAGCUGAAGCCGACAGUGAAAGUCUGGAUGGGAGAAGGAUGAUCGAUCCGGUUCGCCGGAUCCAAAUCGGGCUUCGGUCCGGUUC; assay: reverse transcription termination after photo-cross-linking; details: covalent; folding buffer, 37 °C; 10 μM probe, 2 μM RNA; stops competed by FMN
[3] = system: FMN riboswitch aptamer (FMN RNA) (RNA, riboswitch) GGGUGUAUCCUUCGGGGCAGGGUGGAAAUCCCGACCGGCGGUAGUAAAGCACAUUUGCUUUAGAGCCCGUGACCCGUGUGCAUAAGCACGCGGUGGAUUCAGUUUAAGCUGAAGCCGACAGUGAAAGUCUGGAUGGGAGAAGGAUGA; assay: photoaffinity labeling, Cy5 click fluorescence and PAGE; details: covalent; 10 μM probe; competed out by 10 μM FMN
[4] = system: FMN riboswitch aptamer (FMN RNA) (RNA, riboswitch) GGGUGUAUCCUUCGGGGCAGGGUGGAAAUCCCGACCGGCGGUAGUAAAGCACAUUUGCUUUAGAGCCCGUGACCCGUGUGCAUAAGCACGCGGUGGAUUCAGUUUAAGCUGAAGCCGACAGUGAAAGUCUGGAUGGGAGAAGGAUGA; assay: photoaffinity labeling, Cy5 click fluorescence; details: covalent, 10 μM probe
[5] = system: FMN riboswitch aptamer (FMN RNA) (RNA, riboswitch) GGGUGUAUCCUUCGGGGCAGGGUGGAAAUCCCGACCGGCGGUAGUAAAGCACAUUUGCUUUAGAGCCCGUGACCCGUGUGCAUAAGCACGCGGUGGAUUCAGUUUAAGCUGAAGCCGACAGUGAAAGUCUGGAUGGGAGAAGGAUGA; assay: competitive photoaffinity labeling, PAGE; details: displaces probe 1 (10 μM), UV cross-linked, fluorescein-azide click
[6] = system: FMN riboswitch aptamer (FMN RNA) (RNA, riboswitch) GGGUGUAUCCUUCGGGGCAGGGUGGAAAUCCCGACCGGCGGUAGUAAAGCACAUUUGCUUUAGAGCCCGUGACCCGUGUGCAUAAGCACGCGGUGGAUUCAGUUUAAGCUGAAGCCGACAGUGAAAGUCUGGAUGGGAGAAGGAUGA; assay: competitive photoaffinity labeling, microplate reader fluorescence; details: displaces probe 1

How did the binding [1] turn out when C#CC[C@@H](C(=O)NCCC1(C)N=N1)N(CCCC(=O)O)CCn1c2nc(=O)[nH]c(=O)c-2nc2cc(C)c(C)cc21 was run?
The binding was “yes”.

What about the binding [2] of the same compound?
Its binding is “yes”.

What about the binding [3] of the same compound?
The binding was “yes”.

C#CC[C@@H](C(=O)NCCc1ccc(C(=O)c2ccccc2)cc1)N(CCCC(=O)O)CCn1c2nc(=O)[nH]c(=O)c-2nc2cc(C)c(C)cc21 was tested. Which binding ([4]; low click efficiency not excluded) did it give?
The binding was “weak”.

C#CC[C@@H](C(=O)NCCc1ccc(N=[N+]=[N-])cc1)N(CCCC(=O)O)CCn1c2nc(=O)[nH]c(=O)c-2nc2cc(C)c(C)cc21 was tested. Which binding [4] did it give?
Its binding is “yes”.

With Cc1cc2nc3c(=O)[nH]c(=O)nc-3n(C[C@H](O)[C@H](O)[C@H](O)CO)c2cc1N(C)C as the compound, how does the “apparent IC50” value [5] read?
Its value is 7.0 ± 0.18 µM.

Which binding [1] does the source give for Cc1cc2nc3c(=O)[nH]c(=O)nc-3n(C[C@H](O)[C@H](O)[C@H](O)COP(=O)(O)O)c2cc1C here?
Its binding is “yes”.

And the “apparent IC50” value [5]?
The value was 0.4 ± 0.01 µM.

And the “apparent IC50” value [6]?
Its value is 0.4 ± 0.01 µM.
